Test results taken from patent US9920096B2, “Bradykinin receptor modulators and use thereof” (Sepia Pesquisa e Desenvolvimento, priority 2013, dated 2018).

Key:
[1] = system: Human umbilical vein endothelial cells (HUVEC); assay: In vitro angiogenesis assay on Matrigel (HUVEC); assay type: cell-based
Protocol: The angiogenesis assay was performed according to the protocol described in Paschoalin T, et al (2007).
Human umbilical vein endothelial cells (HUVEC) were maintained in complete RPMI 1640 medium, pH 7.2, supplemented with 10 mM N-2-hydroxyethylpiperazine-N′-2-ethanesulphonic acid (HEPES), 24 mM sodium bicarbonate, 10% heat-inactivated fetal calf serum (FCS) from Gibco (Minneapolis, Minn., USA) and 40 μg/mL gentamicin sulfate (Hipolabor Farmacéutica, Sabará, MG, Brazil).
In vitro angiogenesis assay on Matrigel was performed as described previously (Paschoalin et al, 2007). Briefly, BD Matrigel Matrix (B&D Biosciences, Bedford, Mass., USA) was thawed on ice, distributed in 96-well plates (50 μL per well) and allowed to polymerize for 1 h at 37° C. HUVECs (15×10^3 cells/well) were suspended in 100 μL of RPMI medium supplemented with 2% of FCS and added to each well in the presence of peptides with possible angiogenic activity. Angiogenic stimulators and inhibitors can be incubated with the cells before adding on the Matrigel if necessary. The plates were incubated at 37° C. for 18 h and then images were captured at 8× magnification with a Sony Cyber-shot camera coupled to a light inverted microscope. The number of pro-angiogenic structures (closed rings arising from dendritic extensions of endothelial cells) was counted from 4 different wells, and the average value was determined for each sample.
When stimulated by angiogenic factors, like BK, HUVEC cells undergo the development of pro-angiogenic structures and it allows studying angiogenic or anti-angiogenic molecules. The number of pro-angiogenic structures is counted and compared to a control and to BK. Generally, peptides of the invention derived from VEGF-A were named PepA, peptides from VEGF-C were named PepC, peptides from VEGF-D were named PepD and peptides from Placental Growth Factor were named PepPl.
* p<0.05, Student's “t” test, when comparing the mean number of pro-angiogenic structures from […] different wells of HUVEC cultures to the control.

[2] = system: HUVEC cells; assay: Intracellular calcium measurement in HUVEC cells (Fluo-3 fluorescence); assay type: cell-based, Human; conditions: for Bradykinin receptor activity indicated by calcium entry data: FIG. 5A-E, with and without B1/B2 antagonists
Protocol: The intracellular calcium measurement was performed according to the method described in Bagnaresi P et al, 2012 and Lungato L, et al., 2012.
Human umbilical vein endothelial cells were cultured in RPMI 1640 (GIBCO) containing 10% heat-inactivated fetal bovine serum (FBS), 24 mM sodium bicarbonate, […] gentamicin, 10 mM HEPES, pH 7.4 at 37° C. in a 5% CO2 humidified atmosphere. 5×10^4 cells were plated on 60 mm dishes (Costar 3260), and incubated in culture medium containing 5 μM Fluo-3 AM (Invitrogen Corporation, CA) for 40 min at 37° C. in a buffer containing the channel blocker Probenecid (40 μM), followed by 3 washes with culture medium to discard remaining extracellular probe. The cells were then placed into a culture chamber at 37° C. on the stage of a fluorescence microscope (Zeiss LSM 510 META) with excitation at 488 nm and emission at 505-530 nm. After calcium probe incubation, assays were performed with 1 uM bradykinin (BK), 10 uM PepD 2-10.
Fluorescence data were normalized as F/Fmax, where Fmax represents maximal intracellular fluorescence obtained with Ca2+ released from ER with addition of THG, a Ca2+ATPase inhibitor (Bagnaresi et al. 2012). THG blocks calcium pumps that recover cytosolic calcium from the cytoplasm. Under the action of THG the cytosolic calcium reaches its maximal concentration.
The software-based analysis allowed fluorescence imaging in the whole field or in a selected cell as a function of time (Image J 1.47h, NIH, USA). This was accomplished by defining areas of interest (e.g., an entire cell) on a given image frame and directing the software to construct a graphical representation of intensity over time (GraphPad Software 6 Prisma). Individual traces for typical 15 cells responses represent the intracellular calcium fluorescence changes in the analyzed cell population (Lungato et al. 2012).

[3] = FIG. 2 and 3, peptide at 10 μM, compared to BK 1 μM and control without peptide
[4] = FIG. 4A/4B, 1 μM and 10 μM, 24 h after initial stimulus
[5] = FIG. 5E, peptide 10 μM, in the presence of B1 receptor antagonist DesArg9-Leu8-BK

## FKPPCVNVF [PepD 1-9, derived from VEGF-D]
[1]; [3]
  Induction of angiogenesis in HUVEC angiogenesis assay: able to induce angiogenesis

## FKPSCVPLM [PepA 1-9, derived from VEGF-A]
[1]; [3]
  Induction of angiogenesis in HUVEC angiogenesis assay: able to induce angiogenesis

## KPPCVNVFR [PepD 2-10, derived from VEGF-D]
[1]; FIG. 1, tested at 1 μM, 10 μM and 50 μM, effect at 1 and 10 μM, compared to control
  Effect on HUVEC angiogenesis assay (number of pro-angiogenic structures): pro-angiogenic effect
[1]; [3]
  Induction of angiogenesis in HUVEC angiogenesis assay: able to induce angiogenesis
[2]; peptide 10 μM
  Bradykinin receptor activity indicated by calcium entry data: B2 agonist
[2]; peptide 10 μM, listed as PepD2-10
  Bradykinin receptor activity indicated by calcium entry data: B1 bradykinin receptor activation
[2]; FIG. 5B, peptide 10 μM
  Cytoplasmic calcium in HUVEC (Fluo-3 fluorescence): induces an increase of cytoplasmatic calcium
[2]; FIG. 5C, HOE 140 10 μM for 10 min before peptide 10 μM
  Calcium entry induced by the peptide after previous addition of B2 receptor antagonist HOE140: does not block calcium entry but clearly shows a disruption in the pattern of calcium increase
[2]; FIG. 5D, DesArg9-Leu8-BK 10 μM for 10 min before peptide 10 μM
  Calcium entry induced by the peptide after previous addition of B1 receptor antagonist DesArg9-Leu8-BK: completely blocks the effect of PepD 2-10

## FKPPCVSVYR [PepC 1-10, derived from VEGF-C]
[1]; FIG. 4C, 0.1, 1.0 and 10 μM, 24 h after initial stimulus
  Induction of angiogenesis in HUVEC angiogenesis assay: able to induce angiogenesis

## FKPPCVNVFR [PepD 1-10, derived from VEGF-D]
[1]; [3]
  Induction of angiogenesis in HUVEC angiogenesis assay: able to induce angiogenesis

## KPPCVSVY [PepC 2-9, derived from VEGF-C]
[1]; [4]
  Induction of angiogenesis in HUVEC angiogenesis assay: able to induce angiogenesis

## FSPSCVSLLR [PepPl 1-10, derived from Placental Growth Factor]
[2]; [5]
  Cell fluorescence due to calcium entry in the cytoplasm of HUVEC: induces an increase in cell fluorescence
  Duration of transient fluorescence increase (cytoplasmic calcium increase): around 5 minutes

## KPPCVSVYR [PepC 2-10, derived from VEGF-C]
[1]; [4]
  Induction of angiogenesis in HUVEC angiogenesis assay: able to induce angiogenesis

## KPSCVPLM [PepA 2-9, derived from VEGF-A]
[1]; [3]
  Induction of angiogenesis in HUVEC angiogenesis assay: able to induce angiogenesis
